Measured values from the NIST ThermoML archive (doi:10.1021/je100313a).
“And” between values parts separate entries of the source, which are not always exact repeats. Identical values can stand only once.

Columns and labels:
[1] = 101 kPa, Liquid
[2] = xn = mol fraction of the nth substance listed; conditions: 101 kPa, Liquid

C1C[C@@H]2[C@H]3CC[C@H](C3)[C@@H]2C1 [exo-tetrahydrodicyclopentadiene]
[1]
Conditions | mass density [kg/m3] | viscosity
293.15 K | 935.3 | 3.076 mPa·s and 3.077 mPa·s
298.15 K | 931.4 | 2.784 mPa·s
303.15 K | 927.5 | 2.525 mPa·s
313.15 K | 919.6 | 2.112 mPa·s

C1C[C@@H]2[C@H]3CC[C@H](C3)[C@@H]2C1 [exo-tetrahydrodicyclopentadiene] + CCCCCCCCCCC
[2]
Conditions | mass density, 293.15 K [kg/m3] | mass density, 298.15 K [kg/m3] | mass density, 303.15 K [kg/m3] | mass density, 313.15 K [kg/m3] | viscosity, 293.15 K [mPa·s] | viscosity, 298.15 K [mPa·s] | viscosity, 303.15 K [mPa·s] | viscosity, 313.15 K [mPa·s]
x2 = 0 | 935.3 | 931.4 | 927.5 | 919.6 | 3.076 | 2.784 | 2.525 | 2.112
x2 = 0.0881 | 911.7 | 907.8 | 903.9 | 896.1 | 2.697 | 2.439 | 2.228 | 1.856
x2 = 0.1777 | 889.3 | 885.4 | 881.6 | 873.8 | 2.39 | 2.162 | 1.982 | 1.662
x2 = 0.2711 | 867.6 | 863.7 | 859.9 | 852.1 | 2.135 | 1.937 | 1.78 | 1.499
x2 = 0.3669 | 846.8 | 843 | 839.2 | 831.5 | 1.921 | 1.751 | 1.615 | 1.362
x2 = 0.4654 | 827 | 823.1 | 819.3 | 811.7 | 1.747 | 1.594 | 1.47 | 1.246
x2 = 0.5658 | 808.2 | 804.4 | 800.6 | 793 | 1.608 | 1.47 | 1.359 | 1.158
x2 = 0.6685 | 790.3 | 786.6 | 782.8 | 775.2 | 1.483 | 1.358 | 1.256 | 1.074
x2 = 0.778 | 772.6 | 768.9 | 765.2 | 757.7 | 1.373 | 1.259 | 1.167 | 1
x2 = 0.8855 | 756.5 | 752.7 | 749 | 741.6 | 1.284 | 1.177 | 1.093 | 0.941

C1C[C@@H]2[C@H]3CC[C@H](C3)[C@@H]2C1 [exo-tetrahydrodicyclopentadiene] + CCCCCCCCCCCCCC
[2]
Conditions | mass density, 293.15 K [kg/m3] | mass density, 298.15 K [kg/m3] | mass density, 303.15 K [kg/m3] | mass density, 313.15 K [kg/m3] | viscosity, 293.15 K [mPa·s] | viscosity, 298.15 K [mPa·s] | viscosity, 303.15 K [mPa·s] | viscosity, 313.15 K [mPa·s]
x2 = 0 | 935.3 | 931.4 | 927.5 | 919.6 | 3.077 | 2.784 | 2.525 | 2.112
x2 = 0.0703 | 914.6 | 910.8 | 906.9 | 899.2 | 2.961 | 2.679 | 2.429 | 2.034
x2 = 0.1451 | 894.8 | 891 | 887.1 | 879.5 | 2.857 | 2.582 | 2.343 | 1.958
x2 = 0.2274 | 875.5 | 871.7 | 868 | 860.4 | 2.766 | 2.496 | 2.259 | 1.888
x2 = 0.2692 | 866.5 | 862.7 | 859 | 851.4 | 2.724 | 2.456 | 2.223 | 1.857
x2 = 0.4088 | 839.5 | 835.8 | 832.1 | 824.7 | 2.609 | 2.35 | 2.125 | 1.777
x2 = 0.5067 | 823.2 | 819.5 | 815.9 | 808.5 | 2.544 | 2.291 | 2.072 | 1.734
x2 = 0.616 | 807 | 803.4 | 799.8 | 792.5 | 2.487 | 2.243 | 2.028 | 1.698
x2 = 0.7324 | 791.7 | 788.2 | 784.6 | 777.4 | 2.438 | 2.197 | 1.983 | 1.663
x2 = 0.8606 | 776.9 | 773.4 | 769.8 | 762.7 | 2.39 | 2.151 | 1.94 | 1.629

CCCCCCCCCCCCCC [tetradecane]
[1]
Conditions | mass density [kg/m3] | viscosity [mPa·s]
293.15 K | 762.9 | 2.346
298.15 K | 759.2 | 2.107
303.15 K | 755.7 | 1.897
313.15 K | 748.6 | 1.594

CCCCCCCCCCCCCC [tetradecane] + C1C[C@@H]2[C@H]3CC[C@H](C3)[C@@H]2C1
[2], x1 = 1
Conditions | mass density [kg/m3] | viscosity [mPa·s]
293.15 K | 762.9 | 2.346
298.15 K | 759.2 | 2.107
303.15 K | 755.7 | 1.897
313.15 K | 748.6 | 1.594

CCCCCCCCCCC [undecane]
[1]
Conditions | mass density [kg/m3] | viscosity [mPa·s]
293.15 K | 740.4 | 1.199
298.15 K | 736.7 | 1.099
303.15 K | 733 | 1.022
313.15 K | 725.6 | 0.878

CCCCCCCCCCC [undecane] + C1C[C@@H]2[C@H]3CC[C@H](C3)[C@@H]2C1
[2], x1 = 1
Conditions | mass density [kg/m3] | viscosity [mPa·s]
293.15 K | 740.4 | 1.199
298.15 K | 736.7 | 1.099
303.15 K | 733 | 1.022
313.15 K | 725.6 | 0.878
